In patent US20210338782A1, “STORAGE STABLE SOMATOSTATIN-DOPAMINE CHIMERIC COMPOUNDS AND SALT FORMS THEREOF” (Cydan II, Inc., priority 2019, published 2021):
Counter-ions that a name gives are not always drawn.

Key:
Assay type in all cases: physicochemical
[1] = Solid state (thermolytic) stability of TBR-760 salt forms, open container, UPLC peak purity and appearance
Procedure, shortened: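 About 50 mg of each salt form exposed in open containers at 25° C/60% RH, 40° C/75% RH or 60° C, then stored at −20° C. After 15–20 min equilibration, appearance was noted; samples were dissolved in 0.1% TFA water and diluted to 0.125 mg/mL for UPLC peak purity.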

[2] = Time and temperature stability of lyophilized TBR-760 salts in sealed glass vials (visual appearance, HPLC); details: for salt form degraded: sealed glass vials, HPLC, hydrochloride salt
Protocol: Lyophilized TBR-760 salts prepared as described above were assessed for stability by visual appearance and HPLC following initial production of the salt and following incubation of the salt at 20° C., 40° C., and 60° C. for 2, 4, and 8 weeks in sealed, glass vials. Changes in visual appearance of the salt were noted by evaluating the color of the substance following each incubation condition. Purity of the salt following each incubation condition was evaluated by HPLC. The number and quantity of degradation products were determined according to the number of absorbance peaks that resulted at different retention times and the size of the peaks.

[3] = Photostability of alternative salt forms of lanreotide and TBR-760; details: 1.2 million lux hours visible light or 200 watt hours/square meter UV light, hydrochloride salt
Text: In order to evaluate the light sensitivity and stability of TBR-760 chimeric peptide salts, all five salt forms were exposed to ultraviolet (UV) and visible light according to International Council for Harmonisation of Technical Requirements for Pharmaceuticals for Human Use (ICH) guideline Q1B for photostability testing. In brief, a Caron 6540-1 photostability chamber unit with separate UV and light chambers was used for the studies. Visible light exposure was 1.2 million lux hours and UV exposure was 200 watt hours/square meter.
Photostability of lanreotide acetate, lanreotide bromide, lanreotide chloride, TBR-760 acetate, TBR-760 bromide and TBR760 chloride was tested according to the methods of Example 7. Four samples were prepared for each salt form: one control for each of the UV and visible light exposure conditions (controls isolated from light) and one sample for exposure to each of the UV and visible light conditions. For each sample, 2-5 mg of the salt was weighed into 3 mL clear serum vials and stoppered. Vials containing control samples were wrapped in aluminum foil.
Following exposure to visible and UV light, all lanreotide and TBR-760 salts were analyzed by UPLC as described in Example 7.

[4] = Photostability of TBR-760 salt forms (ICH Q1B, visible and UV light), appearance and UPLC purity; details: for degradation upon exposure to visible or UV light, in words: visible and UV light
Procedure, shortened: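 Salt forms in clear sealed vials were exposed per ICH Q1B to 1.2 million lux hours visible and 200 watt hours/square meter UV, alongside foil-wrapped amber dark controls; reference controls were held at −20° C. Samples were inspected visually for appearance, then analysed by UPLC for purity.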

[5] = Thermogravimetric analysis (TGA) of TBR-760 salt forms; details: ramp 5.0° C. per minute from 25 to 400° C.; hydrochloride salt
Procedure, shortened: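 Each salt form heated from 25 to 400 °C at 5.0 °C per minute while sample weight was recorded, to assess thermal stability.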

[6] = Thermostability of alternative salt forms of lanreotide and TBR-760 (UPLC); details: for thermostability in words: increasing temperature and humidity (25° C./60% RH, 40° C./75% RH, 60° C.) up to 4 weeks
Protocol: Each TBR-760 salt was further evaluated for thermolytic stability over time by setting up three different exposure conditions (25° C. at 60% relative humidity (RH); 40° C. at 75% RH; or 60° C. with open and closed container systems (open dish/closed dish). Approximately 50 mg of each salt form was weighed in a nitrogen-flushed glove box for use in the studies. All samples were stored at −20° C. in a good laboratory practice (GLP) freezer both before and after exposure to the indicated conditions.
The stability of each salt form was assessed by monitoring the post-exposure drug peak purity and by evaluating the post-exposure visual appearance of the salt. The samples were removed from the exposure conditions and allowed to equilibrate to ambient conditions for 15-20 mins. An appropriate amount of each sample was weighed for analysis and dissolved in diluent (deionized water containing 0.1% TFA) to obtain a stock concentration of 1 mg/mL. The stock solution was then diluted to 0.125 mg/mL in an HPLC vial using diluent and the samples were run on a Waters Acquity UPLC system using the parameters shown in Table 4.
We conducted thermostability studies of lanreotide acetate substantially as described in Example 6. These experiments confirmed that lanreotide acetate is […] when exposed to increasing temperature and humidity conditions over time (FIG. 45). […] (FIG. 45). This degree of thermal and humidity instability is disfavored for a pharmaceutical agent, particularly one intended for patient self-administration at home.
To determine whether a thermostable salt form of TBR-760 could be manufactured, a salt exchange was performed as described in Example 1 to generate bromide and chloride salts of TBR-760. Lanreotide bromide and lanreotide chloride salts were also generated and assessed for thermostability to evaluate the effect of the salt form on compound stability and to compare stability of lanreotide and TBR-760 of each salt.
UPLC assays performed as described in Example 6 were further used to determine the number of degradants—and thus the number of impurities—in each sample. Results showing the purity assessment of each sample following thermostability studies are shown in FIGS. 48A-48B (lanreotide and TBR-760 acetate salts), 49A-49B (lanreotide and TBR-760 bromide salts), and 50A-50B (lanreotide and TBR-760 chloride salts).

[7] = 25° C. at 60% RH, open container
[8] = 40° C. at 75% RH, open container
[9] = 60° C., open dish, hydrochloride salt
[10] = UPLC peak purity, 25° C. at 60% RH, open container, hydrochloride salt
[11] = UPLC peak purity, 40° C. at 75% RH, open container, hydrochloride salt
[12] = UPLC peak purity, 60° C., open dish, hydrochloride salt
[13] = all thermostability conditions, UPLC

CCCN1C[C@H](CSCC(=O)NCCCC[C@@H](NC(=O)CSC[C@@H]2C[C@@H]3c4cccc5[nH]cc(c45)C[C@H]3N(CCC)C2)C(=O)N[C@H]2CSSC[C@@H](C(=O)N[C@H](C(N)=O)[C@@H](C)O)NC(=O)[C@H](CC)NC(=O)[C@H](CCCCN)NC(=O)[C@@H](Cc3c[nH]c4ccccc34)NC(=O)[C@H](Cc3ccc(O)cc3)NC2=O)C[C@@H]2c3cccc4[nH]cc(c34)C[C@H]21 [TBR-760 chloride, Dop2-D-Lys(Dop2)-cyclo[Cys-Tyr-D-Trp-Lys-Abu-Cys]-Thr-NH2 hydrochloride salt]
Appearance, T = 2 wk [1, 7]: White | Appearance, T = 4 wk [1, 7]: White | Appearance, T = 3 d [1, 7]: White | stability compared with the other salt forms ([1]; 40° C. at 75% RH and 60° C., 2 and 4 weeks, hydrochloride salt): significantly more stable | Appearance, T = 2 wk [1, 8]: White | Appearance, T = 4 wk ([1]; 40° C. at 75% RH, open container, hydrochloride salt): White | Appearance, T = 3 d [1, 8]: White | Appearance, T = 2 wk [1, 9]: White | Appearance, T = 4 wk [1, 9]: White | Appearance, T = 3 d ([1]; 60° C., open dish): White | Purity, T = 2 wk [1, 10]: 98.28 | Purity, T = 4 wk [1, 10]: 98.04 | Purity, T = 3 d [1, 10]: 98.44 | Purity, T = 2 wk [1, 11]: 97.62 | Purity, T = 4 wk [1, 11]: 97.78 | Purity, T = 3 d [1, 11]: 98.36 | Purity, T = 2 wk [1, 12]: 97.58 | Purity, T = 4 wk [1, 12]: 97.17 | Purity, T = 3 d [1, 12]: 98.45 | Purity, Control ([1]; UPLC peak purity, control, stored at -20° C., hydrochloride salt): 98.31 | Appearance, Control ([1]; control, stored at -20° C.): White | additional degradants in chromatogram versus control ([1]; two weeks at 60° C., open dish, UPLC, hydrochloride salt): two | change in visual appearance ([2]; 8 weeks at 60° C.): no change in the visual appearance | salt form degraded ([2]; 60° C. for 4 weeks): 0.5% | salt form degraded ([2]; 60° C. for 8 weeks): less than 1% | visible appearance after exposure to visible and UV light ([3]; versus control): did not visibly change | photostability in words (UPLC purity) [3]: as photostable as TBR-760 acetate | Purity, UV-exposed ([4]; UPLC, UV 200 watt hours/square meter, clear sealed vial, hydrochloride salt): 97.06 | Purity, Control ([4]; UPLC, control in sealed amber vial at -20° C., hydrochloride salt): 98.31 | Purity, Dark Ctrl-UV ([4]; UPLC, dark control in UV chamber, hydrochloride salt): 98.37 | Purity, Dark Crtl-Light ([4]; UPLC, dark control in visible light chamber, hydrochloride salt): 98.33 | Purity, Light-exposed ([4]; UPLC, visible light 1.2 million lux hours, clear sealed vial, hydrochloride salt): 96.41 | stability following UV exposure, in words ([4]; UV 200 watt hours/square meter): more stable following UV exposure than the acetate, mesylate, sulfate, or tosylate salts | Appearance, UV-exposed ([4]; UV 200 watt hours/square meter, clear sealed vial, listed as Chloride, hydrochloride salt): white | Appearance, UV-exposed ([4]; UV 200 watt hours/square meter, clear sealed vial, listed as chloride salt, hydrochloride salt): remained unchanged | Appearance, Control ([4]; control in sealed amber vial at -20° C.): white | Appearance, Dark Ctrl-UV ([4]; dark control in UV chamber, amber vial wrapped in aluminum foil): white | Appearance, Dark Crtl-Light ([4]; dark control in visible light chamber, amber vial wrapped in aluminum foil): white | degradation upon exposure to visible or UV light, in words ([4]; UPLC, hydrochloride salt): more resistant to degradation than TBR-760 acetate | degradation upon exposure to visible or UV light, in words ([4]; UPLC, listed as TBR-760 chloride salt, hydrochloride salt): more stable | stability following light exposure, in words ([4]; visible light 1.2 million lux hours): significantly more stable than the TBR-760 acetate salt | Appearance, Light-exposed ([4]; visible light 1.2 million lux hours, clear sealed vial, listed as Chloride, hydrochloride salt): white | Appearance, Light-exposed ([4]; visible light 1.2 million lux hours, clear sealed vial, listed as chloride, hydrochloride salt): no visible discoloration | TGA start of decomposition [5]: ~245 °C | compound degraded ([6]; 4 weeks at 60° C. and ambient humidity, hydrochloride salt): less than 0.6% | number of impurities compared with other TBR-760 salts [6, 13]: fewer impurities | percent purity compared with other TBR-760 salts [6, 13]: higher percent purity | thermostability in words ([6]; listed as TBR-760 hydrochloride, hydrochloride salt): thermostable | thermostability in words ([6]; listed as chloride salt form of TBR-760, hydrochloride salt): stable
